Laboratory results published in BindingDB's records for doi:10.1021/ja0466154 (Weizmann Institute of Science, 2004).

Legend:
[1] = biological target: Acetylcholinesterase (Tetronarce californica, UniProt P04058); assay: Enzyme Inhibition Assay; settings: pH 8; 22 °C
Protocol: (§1) The cholinesterase assays were performed using colorimetric method reported by Ellman. […] Each inhibitor was evaluated at several concentrations in the range from 1 nM to 20 uM.

[2] = biological target: Acetylcholinesterase (Electrophorus electricus, UniProt O42275); assay: Enzyme Inhibition Assay; settings: pH 8; 22 °C
Protocol: as §1

Chain of Acetylcholinesterase (Tetronarce californica, UniProt P04058) (P04058 whole entry): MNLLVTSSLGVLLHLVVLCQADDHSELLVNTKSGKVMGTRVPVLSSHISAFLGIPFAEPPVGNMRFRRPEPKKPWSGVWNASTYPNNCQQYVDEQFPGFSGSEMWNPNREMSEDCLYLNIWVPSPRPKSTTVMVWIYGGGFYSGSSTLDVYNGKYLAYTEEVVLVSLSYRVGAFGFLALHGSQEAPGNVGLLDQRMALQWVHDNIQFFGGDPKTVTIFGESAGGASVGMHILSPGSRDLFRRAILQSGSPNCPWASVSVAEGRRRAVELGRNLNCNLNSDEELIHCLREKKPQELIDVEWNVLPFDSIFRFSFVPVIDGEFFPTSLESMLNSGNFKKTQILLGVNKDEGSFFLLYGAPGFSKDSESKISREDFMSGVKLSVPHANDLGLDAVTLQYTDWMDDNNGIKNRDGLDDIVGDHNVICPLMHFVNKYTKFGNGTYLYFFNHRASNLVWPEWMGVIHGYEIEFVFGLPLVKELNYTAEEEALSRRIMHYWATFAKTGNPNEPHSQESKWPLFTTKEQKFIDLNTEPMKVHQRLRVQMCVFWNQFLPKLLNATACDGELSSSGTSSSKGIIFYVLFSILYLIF
Chain of Acetylcholinesterase (Electrophorus electricus, UniProt O42275) (O42275 whole entry): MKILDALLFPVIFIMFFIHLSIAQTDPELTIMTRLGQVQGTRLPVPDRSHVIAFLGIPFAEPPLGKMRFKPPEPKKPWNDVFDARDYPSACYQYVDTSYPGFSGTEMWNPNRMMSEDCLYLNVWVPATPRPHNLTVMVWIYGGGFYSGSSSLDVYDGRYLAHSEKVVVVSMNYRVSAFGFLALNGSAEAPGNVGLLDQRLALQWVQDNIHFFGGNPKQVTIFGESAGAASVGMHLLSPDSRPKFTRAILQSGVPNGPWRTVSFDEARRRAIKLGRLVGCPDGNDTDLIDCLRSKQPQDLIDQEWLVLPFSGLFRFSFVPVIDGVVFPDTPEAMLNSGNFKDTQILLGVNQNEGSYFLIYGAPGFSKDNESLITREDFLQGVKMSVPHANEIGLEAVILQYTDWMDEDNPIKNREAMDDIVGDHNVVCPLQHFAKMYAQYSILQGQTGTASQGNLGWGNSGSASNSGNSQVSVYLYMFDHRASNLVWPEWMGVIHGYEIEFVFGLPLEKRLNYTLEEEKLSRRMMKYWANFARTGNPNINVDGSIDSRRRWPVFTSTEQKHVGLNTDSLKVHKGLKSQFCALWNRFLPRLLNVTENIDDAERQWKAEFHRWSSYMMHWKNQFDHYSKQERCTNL

Row | SMILES | IC50 [1] [nM] | IC50 [2] [nM]
1 | COc1ccc2c3c1O[C@H]1C[C@@H](O)C=C[C@@]31CC[N+](CCCCCCCCN1C(=O)c3ccccc3C1=O)=C2 [(1S,12S,14R)-4-[8-(1,3-dioxo-2,3-dihydro-1H-isoindol-2-yl)octyl]-14-hydroxy-9-methoxy-11-oxa-4-azatetracyclo[8.6.1.0^{1,12}.0^{6,17}]heptadeca-4,6,8,10(17),15-pentaen-4-ium] | 4 | –
2 | C[N+]1=Cc2ccc(OCCCCCCCCN3C(=O)c4ccccc4C3=O)c3c2[C@@]2(C=C[C@H](O)C[C@@H]2O3)CC1 [(1S,12S,14R)-9-{[8-(1,3-dioxo-2,3-dihydro-1H-isoindol-2-yl)octyl]oxy}-14-hydroxy-4-methyl-11-oxa-4-azatetracyclo[8.6.1.0^{1,12}.0^{6,17}]heptadeca-4,6,8,10(17),15-pentaen-4-ium] | 499 | 203
3 | COc1ccc2c3c1O[C@H]1C[C@@H](O)C=C[C@@]31CCN(CCCCCCCCN1C(=O)c3ccccc3C1=O)C2 [galanthamine deriv. 3d] | 38 | 72
4 | COc1ccc2c3c1O[C@H]1C[C@@H](O)C=C[C@@]31CC[N+](C)=C2 [galanthamine deriv. 14] | 702 | 266
